Data: BindingDB's records for doi:10.1016/j.ejmech.2008.07.020 (Jadavpur University, 2009)

Molecular target: Reverse transcriptase/RNaseH (Human immunodeficiency virus 1, UniProt Q72547)
Experiment: Inhibition of HIV1 reverse transcriptase

| Compound | IC50 |
| --- | --- |
| CCCCN1Cc2cccc3[nH]c(=O)n(c23)C[C@@H]1C | 100 µM |
| CCCC1CN(CCC)Cc2cccc3[nH]c(=O)n1c23 (stereo not drawn) | 182 µM |
| C[C@H]1Cn2c(=O)[nH]c3ccc(N)c(c32)CN1CC1CC1 | 849 µM |
